Assay results taken from PubChem BioAssay AID504507 (The Scripps Research Institute Molecular Screening Center, 2011).

Target: sn-1-specific diacylglycerol lipase ABHD11 (Mus musculus) (UniProt Q8K4F5)
Experiment: mouse ABHD11 inhibitor potency, late-stage follow-up, selectivity assay for LYPLA1 inhibitor project, biochemical, gel-based fluorescent ABPP, set 2 (AID 504507)
Conditions: mouse proteome gel-based ABPP, fluorescent probe labeling

sn-1-specific diacylglycerol lipase ABHD11 (Mus musculus), sequence (Q8K4F5 whole entry, looked up): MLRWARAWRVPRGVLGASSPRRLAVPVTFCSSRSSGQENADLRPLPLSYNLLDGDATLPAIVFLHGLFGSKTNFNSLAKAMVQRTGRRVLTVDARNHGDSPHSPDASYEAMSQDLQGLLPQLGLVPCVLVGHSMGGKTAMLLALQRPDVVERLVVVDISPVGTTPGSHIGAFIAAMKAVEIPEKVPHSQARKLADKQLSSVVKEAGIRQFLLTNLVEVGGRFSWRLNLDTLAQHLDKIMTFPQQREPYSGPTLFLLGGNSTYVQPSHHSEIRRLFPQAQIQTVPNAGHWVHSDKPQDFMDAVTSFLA

IC50 | SMILES
1 nM | COCC1CCCCN1C(=O)n1ncc(C(O)(c2ccccc2)c2ccccc2)n1 (configuration not stated)
15 nM | CCC1CCCCN1C(=O)n1ncc(C(O)(c2ccccc2)c2ccccc2)n1 (configuration not stated)
